# In publication PMC12718081 (ACS Infectious Diseases, 2025):
# Entries after “also recorded” stand apart in the source; their conditions may differ. Read-outs that look alike come from different tables or passages of the source.
# What was measured:
# S. mansoni schistosomula = test: Roboworm high-content screening assay on schistosomula (motility and phenotype scores); format: cell-based, Schistosoma mansoni; conditions: 72 h
# Description: All PZQ derivatives were synthesized in the racemic form and evaluated as such. The compounds were initially screened at 10 μM against S. mansoni schistosomula using the Roboworm high-content screening assay , and were declared hits or nonhits based on their effect on parasites’ motility and phenotype scores after 72 h of incubation. As none of the compounds were considered hits at this concentration, we performed a titration from 6.25 to 50 μM (Figure S27).
# DMSO was included as a negative control. Compounds were considered hits if both their motility and phenotype scores were lower than −0.35 and −0.15, respectively (region delimited by the dashed lines). In red, PZQ analogues selected for further analysis.
# For the collection of schistosomula, B. glabrata snails infected with S. mansoni were shed for 2 h under light at 26 °C. Cercariae were collected, mechanically transformed into schistosomula as previously described.
# DMSO (0.625%, v/v) was included as a negative control. Z′ values for the assay were calculated to be 0.542 for phenotype and 0.361 for motility. […]
# (§1) Auranofin (AUR) was included at 10 µM as positive control. DMSO was included as a negative control. Compounds were considered hits if both their motility and phenotype scores were lower than -0.35 and -0.15, respectively (region delimited by the […]
# [1] = test system: juvenile schistosomes (21 days p.i.); test: XTT juvenile viability assay; format: cell-based, Schistosoma mansoni; conditions: 48 h
# [2] = test system: adult schistosomes (male and female worms); test: Adult worm ex vivo high-content image-based motility assay; format: cell-based, Schistosoma mansoni
# Description: Adult schistosomes’ motility was determined using a high-content assay previously developed by our group, , with images analyzed in CellProfiler software. More details are provided in the Supporting Information.
# (§2) Adult worm ex-vivo high-content assay
# (§3) “Area” and “False Negative Rate” from the MeasureObjectSizeShape and MeasureObjectOverlap modules, respectively. These measurements were then modeled by a multilevel generalized linear statistical model. The effects of the experimental treatments on […]
# (§4) The half-maximal inhibitory
# (§5) Windows (GraphPad Software, Boston, MA, USA; www.graphpad.com). […]
# with DMSO as a negative control.
# Sm.TRPMMCLZ = test system: Sm.TRPMMCLZ; parameters: method as in number not given; conditions: background statement; ref number not given; cited from earlier work
# juvenile schistosomes = test: Microscopy analysis of juvenile morphology and motility (viability score 0-3); conditions: 72 h
# Fh.TRPMPZQ = test system: Fh.TRPMPZQ; parameters: method as in number not given; conditions: background statement; ref number not given; cited from earlier work
# S. mansoni = test system: S. mansoni; parameters: method as in numbers not given; conditions: ref numbers not given, cited from earlier work
# Sm.TRPMPZQ L1515A mutant = test: Ca2+ reporter activation assay, Sm.TRPMPZQ point mutant L1515A; format: cell-based, Schistosoma mansoni; conditions: 100 μM
# Description: This trend likely indicates a similar binding mode.
# The colored cells represent the range of EC50 values for each compound based on their ability to activate the channel.
# (§6) The Ca^2+ reporter assay was performed using a Fluorescence Imaging Plate Reader (FLIPR) system, as described in the Supporting Information.
# as §2, §3, §4, §5
# (§7) with DMSO as a negative control. […]
# (§8) reader. […] The fluorescence
# (§9) Untransfected HEK293 cells were used as a control.
# (§10) 10% fetal bovine serum (FBS). […]
# (§11) atmosphere containing 5% CO₂. Following incubation, the growth medium was removed and […]
# (§12) buffer containing 2.5 mM probenecid in HBSS (with Ca²⁺ and Mg²⁺), 20 mM HEPES, 0.3% BSA (Sigma, A7030), and 0.03% L-ascorbic acid (Sigma). Cells were incubated for 40 minutes at 37 °C and subsequently for 20 minutes at room temperature. […]
# (§13) instrument (Molecular Devices). Baseline fluorescence was recorded for 20 seconds, followed by the addition of 5 µL of each drug solution, after which fluorescence was measured continuously for 250 seconds. […]
# Sm.TRPMPZQ (wild-type) = Sm.TRPMPZQ (wild-type) (Schistosoma mansoni, UniProt A0A5K4F0X5); test: Ca2+ reporter (FLIPR) activation assay, wild-type Sm.TRPMPZQ in HEK293 cells; format: cell-based
# Description: The Ca^2+ reporter assay was performed using a Fluorescence Imaging Plate Reader (FLIPR) system, as described in the Supporting Information. […]
# as §4, §5, §7, §8, §9, §10, §11, §12
# prepared in assay buffer without dye and probenecid and dispensed into separate flat-bottom 384-well plates. Calcium flux measurements were performed at room temperature using a […]
# as §13
# Sm.TRPMPZQ = test: Ca2+ reporter assay in antagonist mode (block of PZQ activation of Sm.TRPMPZQ); format: cell-based, Schistosoma mansoni; conditions: preincubation 1 nM-100 μM for 10 min, data not shown
# Description: as §6, §2, §3, §4, §5, §7, §8, §9, §10, §11
# buffer containing 2.5 mM probenecid in HBSS (with Ca²⁺ and Mg²⁺), 20 mM HEPES, 0.3% BSA (Sigma, A7030), and 0.03% L-ascorbic acid (Sigma). Cells were incubated for 40 minutes at 37 °C and subsequently for 20 minutes at room temperature. A total of seven PZQ derivatives were tested, using racemic PZQ included as a positive control on each assay plate. Drug dilutions were prepared in assay buffer without dye and probenecid and dispensed into separate flat-bottom 384-well plates. Calcium flux measurements were performed at room temperature using a […]
# as §13
# as §1, with “schistosomula after 72h of incubation using the Roboworm high-content screening assay. Auranofin” for “Auranofin”
# (1 picture or pasted object on this page, not shown here)
# Eg.TRPMPZQ = Eg.TRPMPZQ (Echinococcus granulosus, UniProt W6UVV9); test: cell-based; conditions: HEK293, Ca2+ reporter, mean ± standard deviation; read-out: Bmax, Eg.TRPMPZQ activation
# Eg.TRPMPZQ, sequence (W6UVV9 entry or part of it): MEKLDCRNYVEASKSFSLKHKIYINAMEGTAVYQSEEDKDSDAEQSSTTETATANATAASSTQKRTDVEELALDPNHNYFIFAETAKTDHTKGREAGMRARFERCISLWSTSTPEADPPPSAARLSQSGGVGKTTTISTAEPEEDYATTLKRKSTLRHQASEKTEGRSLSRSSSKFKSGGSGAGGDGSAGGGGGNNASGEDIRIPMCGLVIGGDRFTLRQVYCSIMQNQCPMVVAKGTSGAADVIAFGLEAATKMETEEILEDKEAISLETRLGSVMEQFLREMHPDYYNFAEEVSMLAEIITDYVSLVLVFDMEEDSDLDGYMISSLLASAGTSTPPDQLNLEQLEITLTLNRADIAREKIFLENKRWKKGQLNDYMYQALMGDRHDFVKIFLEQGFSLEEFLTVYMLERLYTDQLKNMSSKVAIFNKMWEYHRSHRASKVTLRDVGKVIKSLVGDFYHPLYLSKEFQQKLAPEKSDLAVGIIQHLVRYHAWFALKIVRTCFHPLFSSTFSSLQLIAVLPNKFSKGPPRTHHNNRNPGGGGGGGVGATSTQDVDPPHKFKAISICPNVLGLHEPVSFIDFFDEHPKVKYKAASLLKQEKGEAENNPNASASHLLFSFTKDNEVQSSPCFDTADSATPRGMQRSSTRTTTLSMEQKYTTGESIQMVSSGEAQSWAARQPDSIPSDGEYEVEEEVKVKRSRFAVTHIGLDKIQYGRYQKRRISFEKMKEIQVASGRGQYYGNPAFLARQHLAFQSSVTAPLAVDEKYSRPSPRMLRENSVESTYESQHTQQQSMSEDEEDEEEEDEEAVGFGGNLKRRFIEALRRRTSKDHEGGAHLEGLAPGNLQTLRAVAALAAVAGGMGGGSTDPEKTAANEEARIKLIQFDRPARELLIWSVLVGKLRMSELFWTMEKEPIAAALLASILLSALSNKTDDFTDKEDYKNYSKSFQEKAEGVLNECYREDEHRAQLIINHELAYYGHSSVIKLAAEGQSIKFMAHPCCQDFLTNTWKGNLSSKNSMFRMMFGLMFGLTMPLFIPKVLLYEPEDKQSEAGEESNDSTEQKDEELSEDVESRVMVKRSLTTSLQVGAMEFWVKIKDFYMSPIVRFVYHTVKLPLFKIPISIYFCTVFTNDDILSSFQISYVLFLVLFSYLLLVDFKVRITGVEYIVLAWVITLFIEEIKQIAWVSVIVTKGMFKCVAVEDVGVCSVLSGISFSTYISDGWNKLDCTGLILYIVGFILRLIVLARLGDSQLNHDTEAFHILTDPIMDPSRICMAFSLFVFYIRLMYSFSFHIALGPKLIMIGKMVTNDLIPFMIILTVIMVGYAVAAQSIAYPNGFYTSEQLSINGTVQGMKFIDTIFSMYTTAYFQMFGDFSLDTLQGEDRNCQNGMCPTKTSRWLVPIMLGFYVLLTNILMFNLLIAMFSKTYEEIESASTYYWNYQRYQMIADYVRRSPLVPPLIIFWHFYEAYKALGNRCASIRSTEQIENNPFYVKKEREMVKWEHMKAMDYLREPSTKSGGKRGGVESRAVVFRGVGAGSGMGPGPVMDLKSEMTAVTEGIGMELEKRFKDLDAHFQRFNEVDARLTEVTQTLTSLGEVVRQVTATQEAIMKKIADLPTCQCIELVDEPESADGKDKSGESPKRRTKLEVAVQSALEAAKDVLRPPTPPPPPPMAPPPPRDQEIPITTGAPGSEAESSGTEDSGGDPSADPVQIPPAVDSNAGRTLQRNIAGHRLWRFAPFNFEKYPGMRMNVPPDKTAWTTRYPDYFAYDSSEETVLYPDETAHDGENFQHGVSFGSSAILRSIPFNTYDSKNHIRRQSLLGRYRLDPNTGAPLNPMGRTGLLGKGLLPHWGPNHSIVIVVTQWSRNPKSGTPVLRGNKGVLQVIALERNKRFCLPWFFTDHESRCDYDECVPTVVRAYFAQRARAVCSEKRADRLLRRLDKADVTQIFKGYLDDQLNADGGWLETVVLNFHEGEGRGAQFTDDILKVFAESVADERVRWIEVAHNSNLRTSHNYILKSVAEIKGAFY
# Sm.TRPMPZQ (wild-type), sequence (A0A5K4F0X5 entry or part of it): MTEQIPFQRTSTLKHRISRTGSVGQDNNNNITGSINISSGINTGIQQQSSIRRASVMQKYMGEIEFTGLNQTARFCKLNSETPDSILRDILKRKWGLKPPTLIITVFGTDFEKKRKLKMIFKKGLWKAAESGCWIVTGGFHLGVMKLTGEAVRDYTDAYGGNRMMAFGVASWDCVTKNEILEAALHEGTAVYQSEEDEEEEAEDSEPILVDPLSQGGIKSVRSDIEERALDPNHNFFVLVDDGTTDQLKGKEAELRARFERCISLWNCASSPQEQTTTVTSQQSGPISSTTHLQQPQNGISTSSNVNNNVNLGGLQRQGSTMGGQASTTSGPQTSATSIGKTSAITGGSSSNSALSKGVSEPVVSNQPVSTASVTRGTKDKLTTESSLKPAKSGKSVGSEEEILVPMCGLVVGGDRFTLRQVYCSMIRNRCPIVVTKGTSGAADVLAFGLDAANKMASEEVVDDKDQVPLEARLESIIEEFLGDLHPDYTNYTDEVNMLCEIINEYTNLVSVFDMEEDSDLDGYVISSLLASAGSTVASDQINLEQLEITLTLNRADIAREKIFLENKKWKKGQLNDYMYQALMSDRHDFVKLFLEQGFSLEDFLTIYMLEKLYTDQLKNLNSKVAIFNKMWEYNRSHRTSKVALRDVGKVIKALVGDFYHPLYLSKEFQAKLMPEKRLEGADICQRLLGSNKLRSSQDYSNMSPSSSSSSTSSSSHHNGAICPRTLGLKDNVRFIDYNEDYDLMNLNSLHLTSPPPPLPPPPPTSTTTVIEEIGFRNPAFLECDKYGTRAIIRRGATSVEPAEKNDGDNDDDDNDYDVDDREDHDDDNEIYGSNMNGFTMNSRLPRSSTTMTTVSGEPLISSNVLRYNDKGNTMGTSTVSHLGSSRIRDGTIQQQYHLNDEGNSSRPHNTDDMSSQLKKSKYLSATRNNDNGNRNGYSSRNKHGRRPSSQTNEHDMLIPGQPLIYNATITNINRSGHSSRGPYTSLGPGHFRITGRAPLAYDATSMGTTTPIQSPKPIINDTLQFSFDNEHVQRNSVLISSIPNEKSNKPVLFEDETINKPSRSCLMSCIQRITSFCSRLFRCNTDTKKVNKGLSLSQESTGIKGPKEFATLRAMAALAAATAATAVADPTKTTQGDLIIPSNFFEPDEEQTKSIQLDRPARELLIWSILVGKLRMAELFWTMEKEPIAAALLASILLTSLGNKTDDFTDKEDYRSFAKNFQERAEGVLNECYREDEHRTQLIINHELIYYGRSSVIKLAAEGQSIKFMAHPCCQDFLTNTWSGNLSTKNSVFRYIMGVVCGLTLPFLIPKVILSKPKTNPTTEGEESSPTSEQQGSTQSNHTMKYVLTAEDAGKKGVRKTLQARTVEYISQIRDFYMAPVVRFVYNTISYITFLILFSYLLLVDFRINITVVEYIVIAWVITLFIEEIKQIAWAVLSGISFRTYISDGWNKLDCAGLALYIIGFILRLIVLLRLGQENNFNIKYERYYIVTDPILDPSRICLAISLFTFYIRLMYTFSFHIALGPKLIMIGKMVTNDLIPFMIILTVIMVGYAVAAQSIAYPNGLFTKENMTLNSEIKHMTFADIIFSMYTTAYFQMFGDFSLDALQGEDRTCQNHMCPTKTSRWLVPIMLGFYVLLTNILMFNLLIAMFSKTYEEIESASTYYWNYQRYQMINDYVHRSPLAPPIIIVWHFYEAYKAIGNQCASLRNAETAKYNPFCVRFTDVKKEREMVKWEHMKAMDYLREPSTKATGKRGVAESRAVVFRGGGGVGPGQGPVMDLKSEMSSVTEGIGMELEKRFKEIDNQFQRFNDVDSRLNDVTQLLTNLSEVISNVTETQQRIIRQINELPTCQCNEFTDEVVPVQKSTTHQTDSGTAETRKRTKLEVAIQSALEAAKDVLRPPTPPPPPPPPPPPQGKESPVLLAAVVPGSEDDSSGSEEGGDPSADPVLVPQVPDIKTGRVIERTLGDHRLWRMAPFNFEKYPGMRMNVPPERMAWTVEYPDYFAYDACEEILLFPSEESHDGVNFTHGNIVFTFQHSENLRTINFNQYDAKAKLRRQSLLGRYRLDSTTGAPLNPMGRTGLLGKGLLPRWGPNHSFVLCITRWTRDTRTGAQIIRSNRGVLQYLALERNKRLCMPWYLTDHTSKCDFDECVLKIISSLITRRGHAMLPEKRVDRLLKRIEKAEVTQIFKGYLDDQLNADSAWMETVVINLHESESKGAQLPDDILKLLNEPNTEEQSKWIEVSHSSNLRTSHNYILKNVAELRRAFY
smiles,measurement,setting,value
"O=C(C1CCCCC1)N1CC(=O)N2CCc3ccccc3C2C1 (stereo not drawn) [PZQ, Praziquantel, reference compound]",hit classification (motility and phenotype scores),S. mansoni schistosomula; 6.25 μM,not classified as a hit
same,parasite metabolic activity compared to the DMSO control group (XTT),[1]; 100 μM,significantly decreased
same,viability at 100 µM,"[1]; Schistosoma mansoni, mean ± SD, read-out: juvenile worm viability (XTT, % residual viability)",71.5%
same,EC50,"[2]; Schistosoma mansoni, 0 h, male adult worms, 0 h (immediately after addition), single experiment or geometric mean, read-out: Male worm motility inhibition (EC50)",280 nM
same,EC50,"[2]; Schistosoma mansoni, 0 h, male, 0 h, individual experiments, read-out: Male worm motility inhibition (EC50), values of independent experiments",300 nM
same,EC50,"[2]; Schistosoma mansoni, 24 h, male adult worms, 24 h, single experiment or geometric mean, read-out: Male worm motility inhibition (EC50)",250 nM
same,EC50,"[2]; Schistosoma mansoni, 24 h, male, 24 h, individual experiments, read-out: Male worm motility inhibition (EC50), values of independent experiments",220 nM
same,EC50,"[2]; Schistosoma mansoni, 48 h, male adult worms, 48 h, single experiment or geometric mean, read-out: Male worm motility inhibition (EC50)",250 nM
same,EC50,"[2]; Schistosoma mansoni, 48 h, male, 48 h, individual experiments, read-out: Male worm motility inhibition (EC50), values of independent experiments",270 nM
same,EC50,"[2]; Schistosoma mansoni, 72 h, male adult worms, 72 h, single experiment or geometric mean, read-out: Male worm motility inhibition (EC50)",160 nM
same,EC50,"[2]; Schistosoma mansoni, 72 h, male, 72 h, individual experiments, read-out: Male worm motility inhibition (EC50), values of independent experiments",160 nM
same,EC50,"[2]; Schistosoma mansoni, male, 0-72 h, read-out: EC50 against male adult worms (motility), span over incubation times",~200 nM
same,EC50,"[2]; male, 48 h, individual experiments, listed as PZQ (1), read-out: Male worm motility inhibition (EC50), values of independent experiments",240 nM
same,EC50,"[2]; male, 72 h, individual experiments, listed as PZQ (1), read-out: Male worm motility inhibition (EC50), values of independent experiments",170 nM
same,activation of Sm.TRPMMCLZ,Sm.TRPMMCLZ,does not activate
same,number of juvenile worms with viability score 0,"juvenile schistosomes; 10 μM, Table S1",56
same,number of juvenile worms with viability score 1,"juvenile schistosomes; 10 μM, Table S1",12
same,number of juvenile worms with viability score 2,"juvenile schistosomes; 10 μM, Table S1",27
same,number of juvenile worms with viability score 3,"juvenile schistosomes; 10 μM, Table S1",14
same,viability at 10 µM,"juvenile schistosomes; Schistosoma mansoni, read-out: Relative frequency of viability score 3",12.8%
same,activation of Fh.TRPMPZQ,Fh.TRPMPZQ,does not activate
same,in vitro potency against adult worms,S. mansoni; S. mansoni adults,160 to 750 nM
same,in vitro potency against schistosomula,S. mansoni; S. mansoni schistosomula,1300 to 4800 nM
O=C(C1CCCCC1)N1CC(=O)N2CCc3ccc(-n4cc(C5(O)CCCCC5)nn4)cc3C2C1 (stereo not drawn) [Compound 5d],hit classification (motility and phenotype scores),"S. mansoni schistosomula; 50 μM, hit if motility < -0.35 and phenotype < -0.15",inactive
same,activation of Sm.TRPMPZQ mutant form L1515A,Sm.TRPMPZQ L1515A mutant,activated
same,"Bmax, wild-type Sm.TRPMPZQ activation",Sm.TRPMPZQ (wild-type),No activity
same,EC50 for wild-type Sm.TRPMPZQ activation,Sm.TRPMPZQ (wild-type); 0.001 to 100 μM,failed to activate; also recorded: No activity
same,block of PZQ activation of Sm.TRPMPZQ (antagonist mode),Sm.TRPMPZQ,failed to impact subsequent responses to PZQ
same,activity against adult worms,[2]; data not shown,inactive
same,Emax,Eg.TRPMPZQ,94 ± 4.08%
